Legend:
human recombinant HDAC6 = molecular target: T1, human recombinant HDAC6 (Homo sapiens, UniProt Q9UBN7); assay: HDAC6 enzyme activity inhibition assay (HDAC Fluorimetric Drug Discovery Kit); format: biochemical; settings: 30° C. 60 minutes
T1 construct: purchased Calbiochem 382180
T1 sequence (Q9UBN7 1-1215): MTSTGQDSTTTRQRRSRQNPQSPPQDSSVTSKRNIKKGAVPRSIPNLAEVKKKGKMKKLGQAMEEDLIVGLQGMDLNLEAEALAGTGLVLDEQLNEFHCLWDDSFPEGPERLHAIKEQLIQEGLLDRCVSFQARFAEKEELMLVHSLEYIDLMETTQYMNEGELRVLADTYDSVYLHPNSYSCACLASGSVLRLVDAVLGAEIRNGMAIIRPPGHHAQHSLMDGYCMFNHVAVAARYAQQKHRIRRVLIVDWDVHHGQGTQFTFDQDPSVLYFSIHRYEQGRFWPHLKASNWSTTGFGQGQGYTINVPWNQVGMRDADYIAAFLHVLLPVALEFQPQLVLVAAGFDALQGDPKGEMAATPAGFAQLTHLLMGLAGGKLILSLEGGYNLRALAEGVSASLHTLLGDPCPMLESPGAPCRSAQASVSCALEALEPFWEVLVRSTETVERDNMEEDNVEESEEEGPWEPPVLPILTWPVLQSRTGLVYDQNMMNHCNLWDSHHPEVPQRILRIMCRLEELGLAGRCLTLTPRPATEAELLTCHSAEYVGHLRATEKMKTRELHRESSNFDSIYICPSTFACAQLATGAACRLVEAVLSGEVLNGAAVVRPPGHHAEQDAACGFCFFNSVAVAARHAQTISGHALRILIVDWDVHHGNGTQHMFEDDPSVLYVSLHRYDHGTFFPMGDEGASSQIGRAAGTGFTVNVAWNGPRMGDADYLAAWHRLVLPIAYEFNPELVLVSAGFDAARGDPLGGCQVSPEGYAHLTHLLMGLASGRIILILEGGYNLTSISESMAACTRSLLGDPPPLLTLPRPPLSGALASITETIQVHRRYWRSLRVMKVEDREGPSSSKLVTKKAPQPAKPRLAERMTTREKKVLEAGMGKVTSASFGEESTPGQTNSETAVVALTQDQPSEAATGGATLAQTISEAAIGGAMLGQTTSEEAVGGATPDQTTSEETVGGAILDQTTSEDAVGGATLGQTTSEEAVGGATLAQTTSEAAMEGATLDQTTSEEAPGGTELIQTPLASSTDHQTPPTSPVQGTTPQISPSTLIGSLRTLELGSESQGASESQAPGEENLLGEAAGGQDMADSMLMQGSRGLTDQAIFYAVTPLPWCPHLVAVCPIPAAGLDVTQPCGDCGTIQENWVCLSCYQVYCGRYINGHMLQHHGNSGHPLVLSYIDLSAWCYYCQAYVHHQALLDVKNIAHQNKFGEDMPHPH
Outline: (§1)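 Recombinant enzyme (0.3 μg) was incubated with 5-fold serially diluted compound and 10 μM Fluor de Lys-SIRT1 substrate for 60 min at 30° C. Developer II was then added for 30 min, fluorescence read at Ex 360/Em 460, and IC50 values were calculated.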

human recombinant HDAC1 = molecular target: T2, human recombinant HDAC1 (Homo sapiens, UniProt Q13547); assay: HDAC1 enzyme activity inhibition assay (HDAC Fluorimetric Drug Discovery Kit); format: biochemical; settings: human recombinant HDAC1, 10 μM substrate, 30° C. 60 minutes
T2 construct: purchased Enzo Life Science BML-SE456
Outline: as §1

T2 sequence (Q13547 whole entry): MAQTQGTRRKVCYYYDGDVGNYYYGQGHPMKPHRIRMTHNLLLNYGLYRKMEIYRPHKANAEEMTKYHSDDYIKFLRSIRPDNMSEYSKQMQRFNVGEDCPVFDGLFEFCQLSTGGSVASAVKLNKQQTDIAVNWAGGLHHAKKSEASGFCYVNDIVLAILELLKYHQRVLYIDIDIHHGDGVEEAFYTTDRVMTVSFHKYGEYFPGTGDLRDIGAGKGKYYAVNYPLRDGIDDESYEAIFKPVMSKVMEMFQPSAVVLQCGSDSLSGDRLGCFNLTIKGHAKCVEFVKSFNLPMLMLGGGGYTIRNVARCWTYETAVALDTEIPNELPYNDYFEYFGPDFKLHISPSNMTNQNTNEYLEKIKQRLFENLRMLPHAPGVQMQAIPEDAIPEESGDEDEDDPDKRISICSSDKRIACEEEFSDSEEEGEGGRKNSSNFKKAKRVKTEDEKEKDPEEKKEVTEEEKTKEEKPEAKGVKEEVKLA

IC50 (human recombinant HDAC6) | IC50 (human recombinant HDAC1) | Structure (SMILES)
44 nM | > 10000 nM | Cc1ccccc1C1(Nc2ncc(-c3nnc(C(F)F)o3)cn2)CCC1 [Compound 1671, 5-(5-(difluoromethyl)-1,3,4-oxadiazol-2-yl)-N-(1-(o-tolyl)cyclobutyl)pyrimidin-2-amine]
1250 nM | > 10000 nM | FC(F)(F)c1nnc(-c2cnc(NC3(c4ccccc4)CCCCC3)nc2)o1 [Compound 1582, N-(1-phenylcyclohexyl)-5-(5-(trifluoromethyl)-1,3,4-oxadiazol-2-yl)pyrimidin-2-amine]
39 nM | > 10000 nM | Fc1ccc(C2(Nc3ncc(-c4nnc(C(F)F)o4)cn3)CC2)cc1F [Compound 2058, 5-(5-(difluoromethyl)-1,3,4-oxadiazol-2-yl)-N-(1-(3,4-difluorophenyl)cyclopropyl)pyrimidin-2-amine]
888 nM | > 10000 nM | Fc1ccc(Cl)c(C2(Nc3ncc(-c4nnc(C(F)(F)F)o4)cn3)CCC2)c1 [Compound 1962, N-(1-(2-chloro-5-fluorophenyl)cyclobutyl)-5-(5-(trifluoromethyl)-1,3,4-oxadiazol-2-yl)pyrimidin-2-amine]
397 nM | > 10000 nM | CC(C)N1CCC(c2ccc(C3(Nc4ncc(-c5nnc(C(F)F)o5)cn4)CCC3)cc2)CC1 [Compound 2037, 5-(5-(difluoromethyl)-1,3,4-oxadiazol-2-yl)-N-(1-(4-(1-isopropylpiperidin-4-yl)phenyl)cyclobutyl)pyrimidin-2-amine]
44 nM | > 10000 nM | COc1cccc(C2(Nc3ncc(-c4nnc(C(F)F)o4)cn3)CCC2)c1 [Compound 1605, 5-(5-(difluoromethyl)-1,3,4-oxadiazol-2-yl)-N-(1-(3-methoxyphenyl)cyclobutyl)pyrimidin-2-amine]
168 nM | > 10000 nM | COc1cccc(C2(Nc3ncc(-c4nnc(C(F)(F)F)o4)cn3)CCC2)c1 [Compound 1606, N-(1-(3-methoxyphenyl)cyclobutyl)-5-(5-(trifluoromethyl)-1,3,4-oxadiazol-2-yl)pyrimidin-2-amine]
329 nM | > 10000 nM | Fc1ccc(C2(Nc3ncc(-c4nnc(C(F)F)o4)cn3)CCC2)cc1N1CCOCC1 [Compound 2046, 5-(5-(difluoromethyl)-1,3,4-oxadiazol-2-yl)-N-(1-(4-fluoro-3-morpholinophenyl)cyclobutyl)pyrimidin-2-amine]
39 nM | > 10000 nM | Fc1cccc(F)c1C1(Nc2ncc(-c3nnc(C(F)F)o3)cn2)CCC1 [Compound 1828, 5-(5-(difluoromethyl)-1,3,4-oxadiazol-2-yl)-N-(1-(2,6-difluorophenyl)cyclobutyl)pyrimidin-2-amine]
302 nM | > 10000 nM | FC(F)c1nnc(-c2cnc(NC3(c4ccccc4OC(F)(F)F)CCC3)nc2)o1 [Compound 2028, 5-(5-(difluoromethyl)-1,3,4-oxadiazol-2-yl)-N-(1-(2-(trifluoromethoxy)phenyl)cyclobutyl)pyrimidin-2-amine]
596 nM | > 10000 nM | FC(F)(F)c1cccc(C2(Nc3ncc(-c4nnc(C(F)(F)F)o4)cn3)CCC2)c1 [Compound 1670, 5-(5-(trifluoromethyl)-1,3,4-oxadiazol-2-yl)-N-(1-(3-(trifluoromethyl)phenyl)cyclobutyl)pyrimidin-2-amine]
62 nM | > 10000 nM | FC(F)c1nnc(-c2cnc(NC3(c4cccc(C(F)(F)F)c4)CC3)nc2)o1 [Compound 1740, 5-(5-(difluoromethyl)-1,3,4-oxadiazol-2-yl)-N-(1-(3-(trifluoromethyl)phenyl)cyclopropyl)pyrimidin-2-amine]
58 nM | > 10000 nM | FC(F)(F)c1nnc(-c2cnc(NC3(c4ccccn4)CCC3)nc2)o1 [Compound 1641, N-(1-(pyridin-2-yl)cyclobutyl)-5-(5-(trifluoromethyl)-1,3,4-oxadiazol-2-yl)pyrimidin-2-amine]
25 nM | > 10000 nM | Cc1cccc(C2(Nc3ncc(-c4nnc(C(F)F)o4)cn3)CCC2)c1 [Compound 1673, 5-(5-(difluoromethyl)-1,3,4-oxadiazol-2-yl)-N-(1-(m-tolyl)cyclobutyl)pyrimidin-2-amine]
234 nM | > 10000 nM | Cc1ccccc1C1(Nc2ncc(-c3nnc(C(F)(F)F)o3)cn2)CCC1 [Compound 1672, N-(1-(o-tolyl)cyclobutyl)-5-(5-(trifluoromethyl)-1,3,4-oxadiazol-2-yl)pyrimidin-2-amine]
46 nM | > 10000 nM | FC(F)c1nnc(-c2cnc(NC3(c4ccccc4)CCCC3)nc2)o1 [Compound 1579, 5-(5-(difluoromethyl)-1,3,4-oxadiazol-2-yl)-N-(1-phenylcyclopentyl)pyrimidin-2-amine]
29 nM | > 10000 nM | FC(F)c1nnc(-c2cnc(NC3(c4ccccc4Cl)CCC3)nc2)o1 [Compound 1614, N-(1-(2-chlorophenyl)cyclobutyl)-5-(5-(difluoromethyl)-1,3,4-oxadiazol-2-yl)pyrimidin-2-amine]
26 nM | > 10000 nM | FC(F)c1nnc(-c2cnc(NC3(c4cccc(Cl)c4)CC3)nc2)o1 [Compound 2050, N-(1-(3-chlorophenyl)cyclopropyl)-5-(5-(difluoromethyl)-1,3,4-oxadiazol-2-yl)pyrimidin-2-amine]
75 nM | > 10000 nM | FC(F)c1nnc(-c2cnc(NC3(c4ccc(Cl)cc4)CC3)nc2)o1 [Compound 2052, N-(1-(4-chlorophenyl)cyclopropyl)-5-(5-(difluoromethyl)-1,3,4-oxadiazol-2-yl)pyrimidin-2-amine]
50 nM | > 10000 nM | COc1ccc(C2(Nc3ncc(-c4nnc(C(F)F)o4)cn3)CCC2)cc1 [Compound 1603, 5-(5-(difluoromethyl)-1,3,4-oxadiazol-2-yl)-N-(1-(4-methoxyphenyl)cyclobutyl)pyrimidin-2-amine]
163 nM | > 10000 nM | Fc1ccc(C2(Nc3ncc(-c4nnc(C(F)F)o4)cn3)CCC2)c(Cl)c1 [Compound 1959, N-(1-(2-chloro-4-fluorophenyl)cyclobutyl)-5-(5-(difluoromethyl)-1,3,4-oxadiazol-2-yl)pyrimidin-2-amine]
110 nM | > 10000 nM | FC(F)c1nnc(-c2cnc(NC3(c4c(Cl)cccc4Cl)CCC3)nc2)o1 [Compound 1838, N-(1-(2,6-dichlorophenyl)cyclobutyl)-5-(5-(difluoromethyl)-1,3,4-oxadiazol-2-yl)pyrimidin-2-amine]
83 nM | > 10000 nM | FC(F)c1nnc(-c2cnc(NC3(c4ccc5c(c4)OCO5)CCC3)nc2)o1 [Compound 1820, N-(1-(benzo[d][1,3]dioxol-5-yl)cyclobutyl)-5-(5-(difluoromethyl)-1,3,4-oxadiazol-2-yl)pyrimidin-2-amine]
100 nM | > 10000 nM | FC(F)c1nnc(-c2cnc(NC3(c4cccs4)CC3)nc2)o1 [Compound 2040, 5-(5-(difluoromethyl)-1,3,4-oxadiazol-2-yl)-N-(1-(thiophen-2-yl)cyclopropyl)pyrimidin-2-amine]
89 nM | > 10000 nM | Fc1ccc(Cl)cc1C1(Nc2ncc(-c3nnc(C(F)F)o3)cn2)CCC1 [Compound 1963, N-(1-(5-chloro-2-fluorophenyl)cyclobutyl)-5-(5-(difluoromethyl)-1,3,4-oxadiazol-2-yl)pyrimidin-2-amine]
2520 nM | > 10000 nM | FC(F)(F)c1nnc(-c2cnc(NC3(c4ccc(Cl)cc4Cl)CCC3)nc2)o1 [Compound 1837, N-(1-(2,4-dichlorophenyl)cyclobutyl)-5-(5-(trifluoromethyl)-1,3,4-oxadiazol-2-yl)pyrimidin-2-amine]
1960 nM | > 10000 nM | FC(F)(F)c1nnc(-c2cnc(NC3(c4ccc(Cl)c(Cl)c4)CCC3)nc2)o1 [Compound 1835, N-(1-(3,4-dichlorophenyl)cyclobutyl)-5-(5-(trifluoromethyl)-1,3,4-oxadiazol-2-yl)pyrimidin-2-amine]

— patent US10494355B2, “Oxadiazole amine derivative compounds as histone deacetylase 6 inhibitor, and the pharmaceutical composition comprising the same” (Chong Kun Dang Pharmaceutical Corp., priority 2015, dated 2019)
